Results taken from patent publication US20050154035A1, “Methods of using zonisamide as an adjunctive therapy for partial seizures” (Eisai Co., Ltd., priority 2004, published 2005).

How the values were obtained:
T-type Ca^2+ currents = details: in vitro; cited from earlier work
[1] = Pharmacovigilance review of rhabdomyolysis / CPK elevation in zonisamide-treated patients (U.S. and Japan); details: human, in vivo
From the text: The pharmacovigilance data that were collected, reviewed and analyzed provided the following information in respect of the incidence of rhabdomyolysis/CPK elevation in the zonisamide-treated patient population. To date, a total of 10 cases fulfill the criteria of potential rhabdomyolysis cases. These 10 cases were reviewed in detail for evaluation of possible safety signals. All 10 cases fulfill serious criteria. Of these 10 cases, seven (7) cases were reported as rhabdomyolysis and three (3) cases were reported as CPK increase.
Of the seven (7) rhabdomyolysis cases, six (6) are verbatim cases from Dainippon and one (1) originates in the U.S. Of the seven (7) cases, three (3) were pediatric cases and four (4) were adult cases.
Of the seven (7) rhabdomyolysis cases, two (2) cases have strong confounding factors, but the possibility of zonisamide involvement cannot be completely excluded. Two (2) cases have moderate confounding factors, and zonisamide involvement may be possible.
Of the three (3) cases of CPK increase, one (1) is a verbatim report from Dainippon, and two (2) originated from the U.S. Of the three (3) cases, two are pediatric patients and one is an adult. Of these three (3) cases, two (2) recovered and the outcome of the third is unknown.
Of the three (3) cases of CPK increase, one (1) case has strong confounding factors, but the possibility of zonisamide involvement cannot be completely excluded. One (1) case has weak confounding factors, and zonisamide involvement may be possible.
Estimates of zonisamide exposure, based upon retail and mail order prescriptions, indicate that the number of unique patients taking zonisamide capsules in the U.S. is about 37,276 (total prescriptions per year/average number of prescriptions per patient per year less a calculated percentage decrease based on estimated annual dropouts) in the time between approval in 2000 and December 2002. Hospital patient data for that period, however, is not available and is not reflected in the estimates. Estimates of patient exposure for Japan indicate that the number of unique patients taking zonisamide is about 1,185,177 for time beginning with the approval in Japan through December 2002. Japanese data includes prescription and hospital patient data. Exposure from clinical trials are not included in the U.S. or Japanese exposure estimates. Based on these statistics, the estimated number of patients exposed to zonisamide in the U.S. and Japan is 1,222,453 unique patients. This is a rather conservative estimate, assuring that the number of patients actually exposed to zonisamide is unlikely to be higher than the estimate provided. Similarly, the incidences of rhabdomyolysis estimated herein are unlikely to be higher than calculated. […]

[2] = system: GABA/benzodiazepine receptor ionophore complex; details: in vitro, cited from earlier work
rat hippocampal slices = details: 10-30 μg/mL; cited from earlier work
[3] = in vivo; cited from earlier work
[4] = system: cultured mouse spinal cord neurons; details: 10-30 μg/mL, cited from earlier work
[5] = system: dopaminergic and serotonergic neurotransmission; details: in vivo microdialysis; cited from earlier work

NS(=O)(=O)Cc1noc2ccccc12 [zonisamide, 1,2-benzisoxazole-3-methanesulfonamide]
effect on voltage-dependent, transient inward currents (T-type Ca2+ currents) (T-type Ca^2+ currents): reduces voltage-dependent, transient inward currents | CPK increase cases with no or only weak confounding factors [1]: 2 cases | rhabdomyolysis cases with no or only weak confounding factors [1]: 3 cases | time from initiation of zonisamide treatment to development of CPK increase [1]: two (2) days and six (6) weeks | time from initiation of zonisamide treatment to development of rhabdomyolysis [1]: two (2) weeks and nine (9) years | binding to the GABA/benzodiazepine receptor ionophore complex ([2]; allosteric fashion): binds to the GABA/benzodiazepine receptor ionophore complex | effect on chloride flux [2]: does not produce changes in chloride flux | effect on neuronal or glial uptake of [3H]-GABA (rat hippocampal slices): without affecting | doses at which many of the side effects are more frequent [3]: ≥ 300 mg per day | effect on synaptically-driven electrical activity [4]: suppresses synaptically-driven electrical activity | effect on postsynaptic GABA or glutamate responses ([4]; cultured mouse spinal cord neurons): without affecting | effect on dopaminergic and serotonergic neurotransmission [5]: facilitates both dopaminergic and serotonergic neurotransmission
